# Laboratory results: article PMC6199744, “Development of Chemical Proteomics for the Folateome and Analysis of the Kinetoplastid Folateome” (ACS Infectious Diseases, 2018)
# Where two headings read alike, the source gives them in different places.
# What was measured:
# Format in all cases: binding
# [1] = biological target: T1, HeLa cell extract proteins (Homo sapiens, UniProt P57088)
# T1 construct: endogenous in cells; host or cells: HeLa cell extract
# T1 sequence (P57088 1-247): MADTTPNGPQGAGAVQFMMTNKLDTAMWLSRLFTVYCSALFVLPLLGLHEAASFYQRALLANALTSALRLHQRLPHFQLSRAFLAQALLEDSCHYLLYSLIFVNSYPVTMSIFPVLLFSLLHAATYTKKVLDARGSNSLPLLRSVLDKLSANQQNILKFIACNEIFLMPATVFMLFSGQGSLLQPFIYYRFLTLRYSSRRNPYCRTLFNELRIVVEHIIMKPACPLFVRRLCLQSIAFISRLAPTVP
# [2] = biological target: T2, HeLa cell extract proteins (Homo sapiens, UniProt P06454)
# T2 construct: endogenous in cells; host or cells: HeLa cell extract
# T2 sequence (P06454 1-111): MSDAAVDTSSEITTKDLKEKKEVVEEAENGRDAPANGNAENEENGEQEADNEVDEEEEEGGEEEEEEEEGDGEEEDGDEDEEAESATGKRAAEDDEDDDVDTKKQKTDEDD
# [3] = biological target: T3, HeLa cell extract proteins (Homo sapiens, UniProt Q12769)
# T3 construct: endogenous in cells; host or cells: HeLa cell extract
# T3 sequence (Q12769 1-1436): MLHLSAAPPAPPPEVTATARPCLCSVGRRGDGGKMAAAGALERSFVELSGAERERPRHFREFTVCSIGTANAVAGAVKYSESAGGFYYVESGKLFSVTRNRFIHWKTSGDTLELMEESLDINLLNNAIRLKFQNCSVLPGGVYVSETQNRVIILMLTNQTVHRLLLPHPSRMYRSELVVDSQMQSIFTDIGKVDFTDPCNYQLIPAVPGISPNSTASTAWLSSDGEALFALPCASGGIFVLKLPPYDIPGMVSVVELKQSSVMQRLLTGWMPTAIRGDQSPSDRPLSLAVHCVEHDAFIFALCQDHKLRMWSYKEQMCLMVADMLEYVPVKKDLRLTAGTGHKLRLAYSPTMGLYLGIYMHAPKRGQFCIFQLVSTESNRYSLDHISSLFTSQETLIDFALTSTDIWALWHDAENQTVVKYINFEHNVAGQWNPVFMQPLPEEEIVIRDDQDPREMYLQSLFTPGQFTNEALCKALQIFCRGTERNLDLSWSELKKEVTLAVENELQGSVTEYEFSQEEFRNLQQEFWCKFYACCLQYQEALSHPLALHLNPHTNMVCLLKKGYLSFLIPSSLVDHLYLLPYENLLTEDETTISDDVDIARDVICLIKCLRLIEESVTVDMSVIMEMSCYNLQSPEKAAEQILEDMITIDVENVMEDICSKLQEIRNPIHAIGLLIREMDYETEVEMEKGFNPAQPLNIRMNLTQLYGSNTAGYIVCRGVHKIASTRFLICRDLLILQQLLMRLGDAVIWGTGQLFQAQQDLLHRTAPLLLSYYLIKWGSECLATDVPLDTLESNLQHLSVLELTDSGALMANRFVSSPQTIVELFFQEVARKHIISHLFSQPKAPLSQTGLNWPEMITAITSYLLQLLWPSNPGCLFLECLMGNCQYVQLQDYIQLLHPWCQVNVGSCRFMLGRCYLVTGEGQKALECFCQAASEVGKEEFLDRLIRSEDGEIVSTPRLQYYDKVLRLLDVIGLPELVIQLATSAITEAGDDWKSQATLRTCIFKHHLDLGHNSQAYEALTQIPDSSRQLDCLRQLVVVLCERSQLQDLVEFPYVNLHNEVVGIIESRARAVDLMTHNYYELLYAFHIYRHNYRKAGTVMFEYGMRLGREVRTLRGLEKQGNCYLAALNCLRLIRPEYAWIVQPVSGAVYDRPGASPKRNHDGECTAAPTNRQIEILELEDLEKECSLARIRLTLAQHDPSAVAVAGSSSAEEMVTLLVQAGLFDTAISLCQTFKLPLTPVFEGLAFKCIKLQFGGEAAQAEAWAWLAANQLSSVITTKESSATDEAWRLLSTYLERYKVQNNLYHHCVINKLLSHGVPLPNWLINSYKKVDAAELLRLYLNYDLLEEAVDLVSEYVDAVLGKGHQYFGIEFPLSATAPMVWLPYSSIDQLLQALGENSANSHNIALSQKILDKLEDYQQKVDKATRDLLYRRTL
# [4] = biological target: T4, HeLa cell extract proteins (Homo sapiens, UniProt P52597)
# T4 construct: endogenous in cells; host or cells: HeLa cell extract
# T4 sequence (P52597 1-415): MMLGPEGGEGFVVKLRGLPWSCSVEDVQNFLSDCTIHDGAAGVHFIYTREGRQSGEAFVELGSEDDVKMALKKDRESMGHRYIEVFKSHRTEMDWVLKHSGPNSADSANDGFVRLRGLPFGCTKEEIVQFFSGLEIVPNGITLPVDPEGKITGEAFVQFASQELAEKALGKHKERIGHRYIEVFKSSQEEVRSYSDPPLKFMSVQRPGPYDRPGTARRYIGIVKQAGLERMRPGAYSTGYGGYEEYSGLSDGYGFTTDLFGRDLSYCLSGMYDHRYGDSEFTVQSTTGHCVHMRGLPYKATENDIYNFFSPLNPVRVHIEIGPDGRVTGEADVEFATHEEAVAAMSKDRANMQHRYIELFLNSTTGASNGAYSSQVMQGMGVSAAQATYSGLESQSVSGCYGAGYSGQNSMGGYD
# [5] = biological target: T5, HeLa cell extract proteins (Homo sapiens, UniProt P00491)
# T5 construct: endogenous in cells; host or cells: HeLa cell extract
# T5 sequence (P00491 1-289): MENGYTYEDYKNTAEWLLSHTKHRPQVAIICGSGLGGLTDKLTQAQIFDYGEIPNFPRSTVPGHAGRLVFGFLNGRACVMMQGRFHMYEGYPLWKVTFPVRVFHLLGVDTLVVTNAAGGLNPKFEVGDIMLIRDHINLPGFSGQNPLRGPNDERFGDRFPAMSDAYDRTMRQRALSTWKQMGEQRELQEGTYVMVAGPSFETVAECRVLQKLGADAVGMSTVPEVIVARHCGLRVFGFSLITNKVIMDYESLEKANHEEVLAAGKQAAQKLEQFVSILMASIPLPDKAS
# [6] = biological target: T6, HeLa cell extract proteins (Homo sapiens, UniProt Q13907)
# T6 construct: endogenous in cells; host or cells: HeLa cell extract
# T6 sequence (Q13907 whole entry): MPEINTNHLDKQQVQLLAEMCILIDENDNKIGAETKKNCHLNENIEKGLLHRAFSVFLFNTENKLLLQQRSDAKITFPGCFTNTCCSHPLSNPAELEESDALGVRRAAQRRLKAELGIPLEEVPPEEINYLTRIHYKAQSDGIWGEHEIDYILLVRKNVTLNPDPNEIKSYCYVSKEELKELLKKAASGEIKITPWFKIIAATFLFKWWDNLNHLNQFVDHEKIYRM
# [7] = biological target: T7, HeLa cell extract proteins (Homo sapiens, UniProt P23396)
# T7 construct: endogenous in cells; host or cells: HeLa cell extract
# [8] = HeLa, protein PTMA (15 KDA PROTEIN.)
# [9] = HeLa, protein IDI1 (ISOPENTENYL-DIPHOSPHATE DELTA ISOMERASE.)
SMILES,"fold changes relative to vehicle control ([1]; captured protein TMEM33, HeLa)","fold changes relative to vehicle control [2, 8] [fold]","fold changes relative to vehicle control ([3]; HeLa, protein NUP160)","fold changes relative to vehicle control ([4]; HeLa, protein HNRNPF)","fold changes relative to vehicle control ([5]; protein NP, HeLa)","fold changes relative to vehicle control ([7]; captured protein RPS3, HeLa)","fold changes relative to vehicle control ([1]; HeLa, protein TMEM33)","fold changes relative to vehicle control ([2]; protein PTMA, HeLa)","fold changes relative to vehicle control ([3]; HeLa, captured protein NUP160)","fold changes relative to vehicle control ([4]; HeLa, captured protein HNRNPF)","fold changes relative to vehicle control ([6]; HeLa, protein IDI1)","fold changes relative to vehicle control ([7]; HeLa, captured protein RPS3)",also measured
Nc1nc2cccc(-c3ccccc3)c2n1Cc1ccc(Cl)c(Cl)c1 [compound 3],1.14,0.68,1.2,1.36,0.96,1.03,,,,,,,"fold changes relative to vehicle control ([6]; HeLa, protein IDI1 (ISOPENTENYL-D[…] ISOMERASE.)): 0.88 fold"
CCCCCCOc1ccc(Cc2cnc(N)nc2N)cc1 [compound 1],0.86,1.18,1.03,0.95,1.16,1.08,,,,,,,"fold changes relative to vehicle control [6, 9]: 1.5 fold"
NCCCNc1ccc(C(=O)NC(CCC(=O)O)C(=O)O)cc1 (stereo not shown) [compound 7],,,,,0.89,,1.03,0.72,1.12,0.95,1.01,1.15,
CCCCCCOc1cccc(Cc2cnc(N)nc2N)c1 [compound 2],0.93,3.52,1.11,0.88,1.4,1.16,,,,,,,"fold changes relative to vehicle control [6, 9]: 2.18 fold"
NCCOCCOCC(=O)Nc1nc2ncc(CNc3ccc(C(=O)NC(CCC(=O)O)C(=O)O)cc3)nc2c(=O)[nH]1 (stereo not shown) [compound 6],,,,,1.08,,1,0.89,1.14,0.92,1.2,1.11,
"Nc1nc2[nH]cc(CCc3ccc(C(=O)N[C@@H](CCC(=O)O)C(=O)O)cc3)c2c(=O)[nH]1 [PTX, pemetrexed]",,,,,,,,,,,,,fold changes relative to vehicle control [1]: 0.96; fold changes relative to vehicle control [2]: 0.97; fold changes relative to vehicle control [3]: 1.07; fold changes relative to vehicle control [4]: 0.87; fold changes relative to vehicle control [5]: 0.89; fold changes relative to vehicle control [6]: 1.03; fold changes relative to vehicle control [7]: 1.18
"Nc1nc2c(c(=O)[nH]1)N(C=O)C(CNc1ccc(C(=O)N[C@@H](CCC(=O)O)C(=O)O)cc1)CN2 (stereo partly shown) [LEU, leucovorin]",,,,,0.9,,0.88,0.82,1.02,0.98,1.09,1.08,
